The EC50 is the concentration at which the effect is half-maximal.

The values below come from publication PMC12362796, “Bilirubin Targeting WNK1 to Alleviate NLRP3‐Mediated Neuroinflammation” (Advanced Science, 2025).

The test system of experiment [1] is WNK1 phosphorylation at Thr58. The experiment can be described thus: Western blotting of WNK1 phosphorylation in cochlear nucleus. Type of experiment: cell-based. As to conditions: mouse cochlear nuclei, 30 min. On the procedure: To validate these findings, SH‐SY5Y cells were incubated in a serum‐free medium with bilirubin (6 µM) or an equivalent amount of DMSO as the control, followed by protein denaturation at different temperatures (Figure 1A).
C57BL/6 mice at postnatal day 10 (P10) were euthanized on ice, and their cochlear nuclei were dissected and incubated in artificial cerebrospinal fluid (ACSF), with or without 3 µM bilirubin, followed by rapid freezing in liquid nitrogen. The ACSF composition was 124 mM NaCl, 5 mM KCl, 1.2 mM KH2PO4, 1.3 mM MgCl2, 2.4 mM CaCl2, 24 mM NaHCO3, and 10 mM glucose (pH 7.4).
Cells or tissues were lysed by grinding in RIPA buffer (cat. no. PC101; Epizyme Biotech) supplemented with a protease inhibitor cocktail (cat. no. 5872S; Cell Signaling Technology) at 4 °C. The lysate was subsequently centrifuged at 16000 × g for 30 min at 4 °C and the resulting supernatant was collected. The total protein concentration was determined using the Pierce BCA Protein Assay Kit (cat. no. 23 225, Thermo Fisher Scientific). The samples were denatured in a Protein Sample Loading Buffer (cat. no. LT101; Epizyme Biotech) at 95 °C and subjected to SDS‐polyacrylamide gel electrophoresis. Following electrophoresis, the proteins were transferred onto a nitrocellulose membrane (cat. no. HATF00010; Millipore) using a transfer buffer composed of 25 mM Tris, 190 mM glycine, and 20% methanol. […]
Background: A western blot detects proteins with antibodies after separation by electrophoresis.

The target in a further experiment is T1, hWNK1 (181–507) (Homo sapiens, UniProt Q9H4A3).
T1 construct: the amino acid fragment 181–507 of human WNK1 (hWNK1)
T1 sequence (Q9H4A3 181-507): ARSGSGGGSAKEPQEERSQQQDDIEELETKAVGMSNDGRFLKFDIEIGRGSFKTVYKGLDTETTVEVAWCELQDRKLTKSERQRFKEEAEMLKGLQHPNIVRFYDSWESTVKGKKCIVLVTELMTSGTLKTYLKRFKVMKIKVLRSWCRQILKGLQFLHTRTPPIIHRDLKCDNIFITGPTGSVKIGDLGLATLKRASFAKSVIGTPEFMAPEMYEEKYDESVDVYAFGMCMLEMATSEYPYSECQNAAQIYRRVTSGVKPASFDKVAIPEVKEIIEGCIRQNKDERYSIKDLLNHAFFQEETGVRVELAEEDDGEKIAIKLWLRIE
The experiment can be described thus: ADP-Glo kinase assay, purified hWNK1 kinase domain. In kind it is biochemical. As to conditions: ADP production, luminescence normalized to reactions lacking bilirubin; 12 serial dilutions from 20 µM; read-out: EC50, activation of WNK1 kinase activity. An excerpt: Given the binding of bilirubin to the kinase domain of WNK1, we aimed to explore its effect on WNK1 with a particular focus on its kinase activity. To evaluate WNK1 kinase activity, we utilized an in vitro kinase enzyme assay system to quantify ADP production by the amino acid fragment 181–507 of human WNK1 (hWNK1) over a range of bilirubin concentrations. The kinase‐dead WNK1 mutant hWNK1(181–507 S382A) served as a negative control (Figure S10, Supporting Information).^[ [30] ^]
WNK1 kinase activity was measured using the ADP‐Glo Kinase Assay (Promega, Cat. V9101) following the manufacturer's instructions. Purified protein was incubated with bilirubin across a range of 12 serially diluted concentrations, beginning at a maximum concentration of 20 µM. After the incubation period, luminescence was recorded using a microplate reader (Synergy H1M, BioTek)
In general terms: ADP-Glo first removes unused ATP, then detects ADP through luciferase.

Experiment [2] deals with LPS-induced NLRP3 inflammasome activation in hippocampus. Put plainly: LPS-induced inflammation model in mice, hippocampal NLRP3 inflammasome activation. Type of experiment: in vivo, mouse. An excerpt: Furthermore, a murine model of infection‐induced inflammation was established in neonatal wild‐type, Blvra^−/− , and Ugt1a1^+/− mice by intraperitoneal administration of lipopolysaccharide (LPS) (Figure 5A).^[ [41], [42] ^] We assessed the expression levels of NLRP3 in the hippocampal region and the aggregation of the adaptor protein ASC in hippocampal neurons to indicate the level of inflammasome activation.^[ [43], [44] ^] We observed elevated NLRP3 expression (Figure 5B) and increased ASC aggregation in low‐bilirubin Blvra^−/− mice compared to wild‐type controls, whereas these parameters were reversed in high‐bilirubin Ugt1a1^+/− mice (Figure 5C,D). Additionally, Caspase‐1 enzyme activity decreased in high‐bilirubin mice (Figure 5E), supporting the inhibitory role of bilirubin in NLRP3 activation.
Figure 5 Bilirubin‐WNK1 suppresses LPS‐induced NLRP3 activation in the mouse hippocampus. A) Diagram of the experimental design. LPS (0.6 µg g^−1) or normal saline (NS) was injected intraperitoneally (i.p.) for 5 consecutive days starting on day 7. Hippocampal tissues were harvested 6 h after last injection. B) Western blotting analysis of NLRP3 in hippocampal tissues from WT, Blvra^−/− , or Ugt1a1^+/− mice after LPS/saline treatment. C) Immunofluorescence staining of ASC speck formation in hippocampal tissues from WT, Blvra^−/− , or Ugt1a1^+/− mice after LPS/saline treatment. β3‐Tubulin was used to label neurons and DAPI to stain cell nuclei. Main image scale bars = 50 µm, inset scale bars = 5 µm. D) Summary data showing the percentage of cells containing ASC specks as shown in C) (n = 6). (E) Relative activity of caspase‐1 in hippocampal tissues from WT, Blvra^−/− , or Ugt1a1^+/− mice after LPS/saline treatment (n = 3). F) Experimental design diagram. LPS (0.6 µg g^−1), LPS combined with bilirubin (5 µg g^−1), or normal saline (NS) was injected intraperitoneally for 5 consecutive days starting on day 7. G) Western blotting analysis of NLRP3 in hippocampal tissues from Wnk1^fl/fl,Thy1‐Cre mice after treatment. H) Immunofluorescence staining of ASC speck formation in hippocampal tissues from vehicle‐treated and Wnk1^fl/fl,Thy1‐Cre mice after treatment. β3‐Tubulin was used to label neurons and DAPI to stain cell nuclei. Main image scale bars = 50 µm, inset scale bars = 5 µm. Corresponding images are also provided in Figure S21 (Supporting Information). I) Relative activity of caspase‐1 in hippocampal tissues from Wnk1^fl/fl and Wnk1^fl/fl,Thy1‐Cre mice after treatment (n = 3). Error bars indicate mean ± SD. *p < 0.05, **p < 0.01, ***p < 0.001, and ****p < 0.0001.
To investigate the role of WNK1 in mediating the inhibitory effect of bilirubin on NLRP3 activation, we used Wnk1^fl/fl,Thy1‐Cre mice which is the hippocampal neuron‐specific Wnk1 knockout mice. Mice were then administered intraperitoneal injections of saline, LPS, or a combination of LPS and bilirubin (Figure 5F). After five days of LPS treatment, we observed increased staining areas for GFAP (an astrocyte marker) and IBA1 (a microglia marker). Furthermore, a portion of the adaptor protein ASC (encoded by PYCARD) co‐localized with IBA1 and GFAP.
Caspase‐1 activity was measured using a Caspase‐1 Activity Assay Kit (Beyotime Biotechnology, Haimen, China). Briefly, 50 µg of protein from the mouse hippocampal tissue was added to a reaction buffer containing Ac‐YVAD‐ρNA. The absorbance was read at 405 nm using a microplate reader, and caspase‐1 activity was normalized to that of the control.

The mark [3] stands for this setting: LPS 0.6 µg g−1 with bilirubin 5 µg g−1 i.p., 5 consecutive days, hippocampus.

Consider `C=CC1=C(C)/C(=C/c2[nH]c(Cc3[nH]c(/C=C4\NC(=O)C(C)=C4C=C)c(C)c3CCC(=O)O)c(CCC(=O)O)c2C)NC1=O` [bilirubin, Bilirubin], for which, in experiment [1], the “WNK1 phosphorylation at Thr58 (Thr60 in humans)” value was “substantial reduction”. Moreover, the concentration giving a half-maximal response (EC50) at hWNK1 (181–507) stood at 896 nM. In experiment [2] (LPS 0.6 µg g−1 with bilirubin 5 µg g−1 i.p., 5 consecutive days, hippocampal neurons), the ASC speck formation entry is listed as “reduces”. Moreover, in experiment [2] (setting [3]), the Caspase-1 activation result was “reduces” and the IL-1β cleavage result is listed as “reduces”. Moreover, the “ASC aggregation in microglia or astrocytes” value in experiment [2] (LPS with bilirubin i.p., 5 days, IBA1 and GFAP co-localization) was “does not affect”. Also, in experiment [2] (Wnk1fl/fl,Thy1-Cre mice, LPS stimulation), the “inhibitory effect on NLRP3 inflammasome assembly, Caspase-1 enzyme activity and IL-1β maturation after deletion of Wnk1” value is on record as “abolished”. Further, the “phosphorylation-mediated activation of the NF-κB p65 subunit” value in experiment [2] (upon LPS stimulation, hippocampus) is on record as “neither bilirubin nor Wnk1 deficiency had a significant effect”.
